Experimental data reported in US8580829B2 (Boehringer Ingelheim International GmbH, priority 2010, dated 2013).

Tests used:
[1] = biological target: T1, recombinant human FLAP protein (Homo sapiens, UniProt P20292); experiment: FLAP binding assay (Scintillation Proximity Assay, displacement of [125I]L-691,831); conditions: recombinant human FLAP membranes, [125I]L-691,831 probe; read-out: FLAP SPA IC50
T1 construct: made in house; host or cells: Sf9 insect cells (100,000 x g membrane fraction)
T1 sequence (P20292 1-161): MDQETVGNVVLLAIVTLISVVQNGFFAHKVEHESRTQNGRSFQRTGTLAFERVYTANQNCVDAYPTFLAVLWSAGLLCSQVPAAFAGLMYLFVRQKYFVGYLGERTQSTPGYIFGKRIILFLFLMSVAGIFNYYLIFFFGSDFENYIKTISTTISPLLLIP
Procedure: Cell pellets produced from sf9 insect cells expressing recombinant human FLAP protein are resuspended in buffer A [15 mM Tris-HCl (pH 7.5), 2 mM MgCl2, 0.3 mM EDTA, 1 mM PMSF]. The cells are lysed with a Dounce homogenizer and the material is centrifuged at 10,000×g for 10 minutes. The supernatant is then collected and centrifuged at 100,000×g for 60 minutes. To prepare membrane protein for an assay, an aliquot of the 100,000×g pellet is resuspended in 1 ml of buffer A, Dounce homogenized, and finally subjected to polytron mixing (30 seconds). Membrane protein (25 μl, 5 μg) is mixed with WGA SPA beads (Amersham) and stirred for 1 h.

[2] = tested on: synthesis of LTB4 in human whole blood; experiment: human whole blood LTB4 production inhibition assay; type: cell-based; conditions: Homo sapiens, heparinized human whole blood, calcimycin 20 μM; read-out: hWB LTB4 IC50
Procedure: Compounds are additionally tested in a human whole blood assay to determine their ability to inhibit the synthesis of LTB4 in a cellular system. Compounds are combined with heparinized human whole blood and incubated for 15 minutes at 37° C. Calcimycin (20 μM final, prepared in phosphate-buffered saline, pH 7.4) is then added and the mixture is incubated for another 30 minutes at 37° C. The samples are centrifuged for 5 min at low speed (1500×g) and the plasma layer is removed. Plasma LTB4 concentrations are then measured using an antibody-based homogenous time-resolved fluorescence method (CisBio, Bedford, Mass.).

Row | SMILES | IC50 [1] | IC50 [2]
1 | CNC(=O)c1ccc(-c2nc(C3(c4ccc(-c5cnc(N)nc5)cc4)CCC3)no2)cn1 [Example 28, 5-(3-{1-[4-(2-Amino-pyrimidin-5-yl)-phenyl]-cyclobutyl}-1,2,4-oxadiazol-5-yl)-pyridine-2-carboxylic acid methylamide] | 0.0043 µM | 0.32 µM
2 | CN(C)C(=O)c1ccc(-c2nc(C3(c4ccc(-c5cnc(N)nc5)cc4)CCC3)no2)cn1 [Example 29, 5-(3-{1-[4-(2-Amino-pyrimidin-5-yl)-phenyl]-cyclobutyl}-1,2,4-oxadiazol-5-yl)-pyridine-2-carboxylic acid dimethylamide] | 0.0069 µM | 0.19 µM
3 | Nc1ncc(-c2ccc(C3(c4noc(-c5ccc(C(=O)N6CCOCC6)nc5)n4)CCC3)cc2)cn1 [Example 30, [5-(3-{1-[4-(2-Amino-pyrimidin-5-yl)-phenyl]-cyclobutyl}-1,2,4-oxadiazol-5-yl)-pyridin-2-yl]-morpholin-4-yl-methanone] | 0.0065 µM | 0.23 µM
4 | Cn1cc(-c2nc(C3(c4ccc(-c5cnc(N)nc5)cc4)CCC3)no2)ncc1=O [Example 31, 5-(3-{1-[4-(2-Amino-pyrimidin-5-yl)-phenyl]-cyclobutyl}-1,2,4-oxadiazol-5-yl)-1-methyl-1Hpyrazin-2-one] | 0.003 µM | 1.3 µM
5 | Cn1cccc(-c2nc(C3(c4ccc(-c5cnc(N)nc5)cc4)CCC3)no2)c1=O [Example 32, 3-(3-{1-[4-(2-Amino-pyrimidin-5-yl)-phenyl]-cyclobutyl}-1,2,4-oxadiazol-5-yl)-1-methyl-1Hpyridin-2-one] | 0.0046 µM | 0.077 µM
6 | COc1cc(-c2nc(C3(c4ccc(-c5cnc(N)nc5)cc4)CCC3)no2)on1 [Example 33, 5-(4-{1-[5-(3-Methoxy-isoxazol-5-yl)-1,2,4-oxadiazol-3-yl]-cyclobutyl}-phenyl)-pyrimidin-2-ylamine] | 0.004 µM | 0.55 µM
7 | Cc1cccc(-c2nc(C3(c4ccc(-c5cnc(N)nc5)cc4)CCC3)no2)c1 [Example 34, 5-{4-[1-(5-m-tolyl-1,2,4-oxadiazol-3-yl)-cyclobutyl]-phenyl}-pyrimidin-2-ylamine] | 0.0077 µM | 0.78 µM
8 | Cc1ccc(-c2nc(C3(c4ccc(-c5cnc(N)nc5)cc4)CCC3)no2)cc1 [Example 35, 5-{4-[1-(5p-Tolyl-1,2,4-oxadiazol-3-yl)-cyclobutyl]-phenyl}-pyrimidin-2-ylamine] | 0.0036 µM | 0.6 µM
9 | CS(=O)(=O)c1ccc(-c2nc(C3(c4ccc(-c5cnc(N)nc5)cc4)CCC3)no2)cc1 [Example 36, 5-(4-{1-[5-(4-Methanesulfonyl-phenyl)-1,2,4-oxadiazol-3-yl]-cyclobutyl}-phenyl)-pyrimidin-2-ylamine] | 0.0043 µM | 0.26 µM
10 | Nc1cc(-c2nc(C3(c4ccc(-c5cnc(N)nc5)cc4)CCC3)no2)ccn1 [Example 37, 5-(4-{1-[5-(2-Amino-pyridin-4-yl)-1,2,4-oxadiazol-3-yl]-cyclobutyl}-phenyl)-pyrimidin-2-ylamine] | 0.0037 µM | 0.34 µM
11 | Nc1ncc(-c2ccc(C3(c4noc(-c5ccc(S(N)(=O)=O)cc5)n4)CCC3)cc2)cn1 [Example 38, 4-(3-{1-[4-(2-Amino-pyrimidin-5-yl)-phenyl]-cyclobutyl}-1,2,4-oxadiazol-5-yl)-benzenesulfonamide] | 0.0024 µM | > 5 µM
12 | CS(=O)(=O)c1cccc(-c2nc(C3(c4ccc(-c5cnc(N)nc5)cc4)CCC3)no2)c1 [Example 39, 5-(4-{1-[5-(3-Methanesulfonyl-phenyl)-1,2,4-oxadiazol-3-yl]-cyclobutyl}-phenyl)-pyrimidin-2-ylamine] | 0.012 µM | 0.8 µM
13 | Nc1ncc(-c2ccc(C3(c4noc(-c5c[nH]nn5)n4)CCC3)cc2)cn1 [Example 40, 5-(4-{1-[5-(1H-1,2,3-Triazol-4-yl)-1,2,4-oxadiazol-3-yl]-cyclobutyl}-phenyl)-pyrimidin-2-ylamine] | 0.0047 µM | 2.1 µM
14 | N#Cc1cccc(-c2nc(C3(c4ccc(-c5cnc(N)nc5)cc4)CCC3)no2)c1 [Example 41, 3-(3-{1-[4-(2-Amino-pyrimidin-5-yl)-phenyl]-cyclobutyl}-1,2,4-oxadiazol-5-yl)-benzonitrile] | 0.0081 µM | 0.93 µM
15 | N#Cc1ccc(-c2nc(C3(c4ccc(-c5cnc(N)nc5)cc4)CCC3)no2)cc1 [Example 42, 4-(3-{1-[4-(2-Amino-pyrimidin-5-yl)-phenyl]-cyclobutyl}-1,2,4-oxadiazol-5-yl)-benzonitrile] | 0.0084 µM | 0.69 µM
16 | Nc1ncc(-c2ccc(C3(c4noc(-c5cccc(O)c5)n4)CCC3)cc2)cn1 [Example 43, 3-(3-{1-[4-(2-Amino-pyrimidin-5-yl)-phenyl]-cyclobutyl}-1,2,4-oxadiazol-5-yl)-phenol] | 0.0032 µM | 0.23 µM
17 | Nc1ncc(-c2ccc(C3(c4noc(-c5ccc(O)cc5)n4)CCC3)cc2)cn1 [Example 44, 4-(3-{1-[4-(2-Amino-pyrimidin-5-yl)-phenyl]-cyclobutyl}-1,2,4-oxadiazol-5-yl)-phenol] | 0.0031 µM | 0.075 µM
18 | Nc1ncc(-c2ccc(C3(c4noc(-c5cccc(Cl)c5)n4)CCC3)cc2)cn1 [Example 45, 5-(4-{1-[5-(3-Chloro-phenyl)-1,2,4-oxadiazol-3-yl]-cyclobutyl}-phenyl)-pyrimidin-2-ylamine] | 0.0079 µM | 0.95 µM
19 | Nc1ncc(-c2ccc(C3(c4noc(-c5ccc(Cl)cc5)n4)CCC3)cc2)cn1 [Example 46, 5-(4-{1-[5-(4-Chloro-phenyl)-1,2,4-oxadiazol-3-yl]-cyclobutyl}-phenyl)-pyrimidin-2-ylamine] | 0.0075 µM | 1.5 µM
20 | Nc1ncc(-c2ccc(C3(c4noc(-c5cccc(S(N)(=O)=O)c5)n4)CCC3)cc2)cn1 [Example 47, 3-(3-{1-[4-(2-Amino-pyrimidin-5-yl)-phenyl]-cyclobutyl}-1,2,4-oxadiazol-5-yl)-benzenesulfonamide] | 0.015 µM | 2.4 µM
21 | COc1ccc(-c2nc(C3(c4ccc(-c5cnc(N)nc5)cc4)CCC3)no2)cc1 [Example 48, 5-(4-{1-[5-(4-Methoxy-phenyl)-1,2,4-oxadiazol-3-yl]-cyclobutyl}-phenyl)-pyrimidin-2-ylamine] | 0.0025 µM | 0.43 µM
22 | COc1cccc(-c2nc(C3(c4ccc(-c5cnc(N)nc5)cc4)CCC3)no2)c1 [Example 49, 5-(4-{1-[5-(3-Methoxy-phenyl)-1,2,4-oxadiazol-3-yl]-cyclobutyl}-phenyl)-pyrimidin-2-ylamine] | 0.0037 µM | 0.66 µM
23 | COc1ccc(-c2nc(C3(c4ccc(-c5cnc(N)nc5)cc4)CCC3)no2)cc1OC [Example 50, 5-(4-{1-[5-(3,4-Dimethoxy-phenyl)-1,2,4-oxadiazol-3-yl]-cyclobutyl}-phenyl)-pyrimidin-2-ylamine] | 0.0044 µM | 0.49 µM
24 | Nc1ncc(-c2ccc(C3(c4noc(-c5ccc(F)cc5)n4)CCC3)cc2)cn1 [Example 51, 5-(4-{1-[5-(4-Fluoro-phenyl)-1,2,4-oxadiazol-3-yl]-cyclobutyl}-phenyl)-pyrimidin-2-ylamine] | 0.007 µM | 1 µM
25 | Nc1ncc(-c2ccc(C3(c4noc(-c5cccc(F)c5)n4)CCC3)cc2)cn1 [Example 52, 5-(4-{1-[5-(3-Fluoro-phenyl)-1,2,4-oxadiazol-3-yl]-cyclobutyl}-phenyl)-pyrimidin-2-ylamine] | 0.0043 µM | 0.78 µM
26 | Cc1ccc(-c2nc(C3(c4ccc(-c5cnc(N)nc5)cc4)CCC3)no2)cc1Cl [Example 53, 5-(4-{1-[5-(3-Chloro-4-methyl-phenyl)-1,2,4-oxadiazol-3-yl]-cyclobutyl}-phenyl)-pyrimidin-2-ylamine] | 0.0062 µM | 0.58 µM
27 | CC(C)(C)c1ccc(-c2nc(C3(c4ccc(-c5cnc(N)nc5)cc4)CCC3)no2)cc1 [Example 54, 5-(4-{1-[5-(4-tert-Butyl-phenyl)-1,2,4-oxadiazol-3-yl]-cyclobutyl}-phenyl)-pyrimidin-2-ylamine] | 0.015 µM | 1.2 µM
28 | Nc1ncc(-c2ccc(C3(c4noc(-c5ccc(Cl)c(Cl)c5)n4)CCC3)cc2)cn1 [Example 55, 5-(4-{1-[5-(3,4-Dichloro-phenyl)-1,2,4-oxadiazol-3-yl]-cyclobutyl}-phenyl)-pyrimidin-2-ylamine] | 0.013 µM | 1.1 µM
29 | Nc1ncc(-c2ccc(C3(c4noc(-c5ccnc(Cl)c5)n4)CCC3)cc2)cn1 [Example 56, 5-(4-{1-[5-(2-Chloro-pyridin-4-yl)-1,2,4-oxadiazol-3-yl]-cyclobutyl}-phenyl)-pyrimidin-2-ylamine] | 0.0084 µM | 0.99 µM
30 | Cn1nccc1-c1nc(C2(c3ccc(-c4cnc(N)nc4)cc3)CCC2)no1 [Example 57, 5-(4-{1-[5-(2-methyl-2H-pyrazol-3-yl)-1,2,4-oxadiazol-3-yl]-cyclobutyl}-phenyl)-pyrimidin-2-ylamine] | 0.0018 µM | 0.045 µM
